pIC50: −log10 of the molar value.
Columns and labels:
human recombinant TPH2 = molecular target: T1, human recombinant TPH2 (Homo sapiens, UniProt Q8IWU9); test: TPH2 enzymatic activity assay (fluorescence, 96-well); type: biochemical
T1 construct: Full-length human TPH1 and TPH2 (UniProt entries P17752 and Q8IWU9); MBP (N); made in house
T1 sequence (Q8IWU9 1-490): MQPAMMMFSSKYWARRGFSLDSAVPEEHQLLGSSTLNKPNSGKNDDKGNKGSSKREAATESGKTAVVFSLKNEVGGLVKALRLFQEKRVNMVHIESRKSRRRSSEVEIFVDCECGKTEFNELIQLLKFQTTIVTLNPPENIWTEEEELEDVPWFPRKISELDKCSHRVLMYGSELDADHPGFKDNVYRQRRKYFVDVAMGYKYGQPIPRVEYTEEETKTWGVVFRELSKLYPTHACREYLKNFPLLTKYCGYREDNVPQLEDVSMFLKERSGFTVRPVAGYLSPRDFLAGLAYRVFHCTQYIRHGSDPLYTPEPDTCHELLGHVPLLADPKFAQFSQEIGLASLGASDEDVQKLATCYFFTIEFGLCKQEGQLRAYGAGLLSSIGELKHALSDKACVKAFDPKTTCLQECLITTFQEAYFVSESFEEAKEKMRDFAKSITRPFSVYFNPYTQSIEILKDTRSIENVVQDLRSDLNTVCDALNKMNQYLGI

Sprague–Dawley rats [1] = test: Dose-range finding study in rats, in-life phase; type: in vivo, rat
Protocol: The in-life phase of the experiment was performed at Pharmacelsus GmbH (Saarbrücken, Germany) and enrolled 24 Sprague–Dawley rats (12 males and 12 females) provided by Janvier Laboratories (France); the animals were 7 weeks old at delivery. Inclusion criteria (sex, appropriate body weight, and absence of behavioral changes) were established prior to the study’s commencement. The animals were housed in a temperature-controlled room (20–24 °C) and maintained in a 12 h light/12 h dark cycle. Before the start of the study, the animals underwent a six-day acclimation period. Food and water were available ad libitum throughout the duration of the study.
(§1) TPT-004 was formulated in 0.5% (w/v) CMC-Na in water and administered by oral gavage (PO) twice daily (b.i.d.) with a 12 h interval to the treatment groups (3 male and 3 female Sprague–Dawley rats each) for 8 days (15 successive applications). Rats were dosed with 10, 45, and 200 mg/kg, i.e., daily doses of 20, 90, and 400 mg/kg. In addition, a control group was dosed at the same frequency as the vehicle (0.5% CMC-Na).
Blood samples were collected as described below. The animal sacrifice (exsanguination) was performed on day 8. During the necropsy, the selected organs were collected, weighed, and shipped to a third-party laboratory for histopathological examination (as described below).

Sprague–Dawley rats [2] = test: Dose-range finding study in rats, hematology; type: in vivo, rat; parameters: red cell distribution width (RDW): unit not given here; conditions: for ERY / HCT / HGB / LEU / LYM / LYM (%) / MCH / MCHC / MCV / MON / MON (%) / MPV / NEU / NEU (%) / PCT / PDWc / PDWs / PLT / RDWc / RDWs: day 8
Protocol: as §1
A blood sample of 100 μL was obtained from each rat by puncturing one of the lateral tail veins under short isoflurane anesthesia. Blood was collected in tubes containing lithium heparin and gently mixed. After centrifugation (10 min at 3000g, 4 °C), plasma was separated and stored at −20 °C until LC-MS analysis. In addition, on day 8, the rats were exsanguinated by cardiac puncture under isoflurane anesthesia. A volume of 100 μL of blood (K3-EDTA) was used for immediate cell blood count, while the rest of the blood was mixed with lithium heparin and centrifuged to generate plasma for clinical chemistry analysis.

[3] = two rodent species; previously published pharmacokinetic data; cited from earlier work
[4] = system: MC38 colorectal carcinoma model; conditions: mouse colorectal carcinoma; previous study; cited from earlier work
[5] = 10, 45, or 200 mg/kg BID PO, 8 days
[6] = 10, 45 or 200 mg/kg BID PO, D1 to D8

In the case of `CCn1c(=O)[nH]c(=O)c2c1nc(Cc1cn3cc(C)sc3n1)n2CC1COC1` [TPT-004], the “Mean TPH2 activity [%]” value (human recombinant TPH2; 3 nM) was 100.37%, the pIC50 (human recombinant TPH2; 3 nM to 10 μM, 30 μM L-Trp, 7.5 μM BH4) was 7.66 and the “Mean TPH2 activity [%]” value (human recombinant TPH2; 10 nM) was 73.97%. The “Mean TPH2 activity [%]” value (human recombinant TPH2; 30 nM) was 38.03%, the “Mean TPH2 activity [%]” value (human recombinant TPH2; 100 nM) was 5.40% and the “Mean TPH2 activity [%]” value (human recombinant TPH2; 300 nM) was 1.60%. The “Mean TPH2 activity [%]” value (human recombinant TPH2; 1 μM) was 0.69%, the “Mean TPH2 activity [%]” value (human recombinant TPH2; 3 μM) was 1.07% and the “Mean TPH2 activity [%]” value (human recombinant TPH2; 10 μM) was 1.24%. For the same molecule, the “Selectivity ratio TPH2 IC50 : TPH1 IC50” value (human recombinant TPH2; calculated from determined IC50 values) was 0.65, the pIC50 (human recombinant TPH2; supplementary CSV) was 7.66 and the clinical signs (Sprague–Dawley rats [1]; [5]) was “None of the rats exhibited clinical signs”. The survival (Sprague–Dawley rats [1]; [5]) was “All of the animals survived”, the body weight (Sprague–Dawley rats [1]; [6]) was “increased normally” and the food consumption (Sprague–Dawley rats [1]; [6]) was “in the same range as that of the control group”. For the same molecule, the ERY (Sprague–Dawley rats [2]; 10 mg/kg PO BID) was 8.15e+12 L⁻¹, the HCT (Sprague–Dawley rats [2]; 10 mg/kg PO BID) was 49.64% and the HGB (Sprague–Dawley rats [2]; 10 mg/kg PO BID) was 13.9 g/dL. The LEU (Sprague–Dawley rats [2]; 10 mg/kg PO BID) was 1.308e+10 L⁻¹, the LYM (Sprague–Dawley rats [2]; 10 mg/kg PO BID) was 1.091e+10 L⁻¹ and the “LYM (%)” value (Sprague–Dawley rats [2]; 10 mg/kg PO BID) was 82.8%. The MCH (Sprague–Dawley rats [2]; 10 mg/kg PO BID) was 17.1 pg, the MCHC (Sprague–Dawley rats [2]; 10 mg/kg PO BID) was 28.0 g/dL and the MCV (Sprague–Dawley rats [2]; 10 mg/kg PO BID) was 61 fL. For the same molecule, the MON (Sprague–Dawley rats [2]; 10 mg/kg PO BID) was 5.8e+08 L⁻¹, the “MON (%)” value (Sprague–Dawley rats [2]; 10 mg/kg PO BID) was 4.0% and the MPV (Sprague–Dawley rats [2]; 10 mg/kg PO BID) was 8.2 fL. The NEU (Sprague–Dawley rats [2]; 10 mg/kg PO BID) was 1.59e+09 L⁻¹, the “NEU (%)” value (Sprague–Dawley rats [2]; 10 mg/kg PO BID) was 13.3% and the PCT (Sprague–Dawley rats [2]; 10 mg/kg PO BID) was 0.15%. It also gave a PDWc (Sprague–Dawley rats [2]; 10 mg/kg PO BID) of 33.7%, a PDWs (Sprague–Dawley rats [2]; 10 mg/kg PO BID) of 12.3 fL and a PLT (Sprague–Dawley rats [2]; 10 mg/kg PO BID) of 1.69e+11 L⁻¹. For the same molecule, the RDWc (Sprague–Dawley rats [2]; 10 mg/kg PO BID) was 16.4%, the RDWs (Sprague–Dawley rats [2]; 10 mg/kg PO BID) was 37.6 fL and the ERY (Sprague–Dawley rats [2]; 45 mg/kg PO BID) was 8.12e+12 L⁻¹. The HCT (Sprague–Dawley rats [2]; 45 mg/kg PO BID) was 48.67%, the HGB (Sprague–Dawley rats [2]; 45 mg/kg PO BID) was 14.0 g/dL and the LEU (Sprague–Dawley rats [2]; 45 mg/kg PO BID) was 1.748e+10 L⁻¹. The LYM (Sprague–Dawley rats [2]; 45 mg/kg PO BID) was 1.446e+10 L⁻¹, the “LYM (%)” value (Sprague–Dawley rats [2]; 45 mg/kg PO BID) was 82.7% and the MCH (Sprague–Dawley rats [2]; 45 mg/kg PO BID) was 17.3 pg. For the same molecule, the MCHC (Sprague–Dawley rats [2]; 45 mg/kg PO BID) was 28.8 g/dL, the MCV (Sprague–Dawley rats [2]; 45 mg/kg PO BID) was 60 fL and the MON (Sprague–Dawley rats [2]; 45 mg/kg PO BID) was 1.07e+09 L⁻¹. The “MON (%)” value (Sprague–Dawley rats [2]; 45 mg/kg PO BID) was 6.2%, the MPV (Sprague–Dawley rats [2]; 45 mg/kg PO BID) was 8.3 fL and the NEU (Sprague–Dawley rats [2]; 45 mg/kg PO BID) was 1.95e+09 L⁻¹. The “NEU (%)” value (Sprague–Dawley rats [2]; 45 mg/kg PO BID) was 11.1%, the PCT (Sprague–Dawley rats [2]; 45 mg/kg PO BID) was 0.08% and the PDWc (Sprague–Dawley rats [2]; 45 mg/kg PO BID) was 36.1%. For the same molecule, the PDWs (Sprague–Dawley rats [2]; 45 mg/kg PO BID) was 13.9 fL, the PLT (Sprague–Dawley rats [2]; 45 mg/kg PO BID) was 1.04e+11 L⁻¹ and the RDWc (Sprague–Dawley rats [2]; 45 mg/kg PO BID) was 17.2%. For the same molecule, the RDWs (Sprague–Dawley rats [2]; 45 mg/kg PO BID) was 38.7 fL, the “red cell distribution width (RDW)” value (Sprague–Dawley rats [2]; 200 mg/kg BID, vehicle 16.4 ± 0.8, p = 0.0109) was 19.3 ± 1.6 and the ERY (Sprague–Dawley rats [2]; 200 mg/kg PO BID) was 8.03e+12 L⁻¹. For the same molecule, the HCT (Sprague–Dawley rats [2]; 200 mg/kg PO BID) was 45.70%, the HGB (Sprague–Dawley rats [2]; 200 mg/kg PO BID) was 13.1 g/dL and the LEU (Sprague–Dawley rats [2]; 200 mg/kg PO BID) was 1.534e+10 L⁻¹. For the same molecule, the LYM (Sprague–Dawley rats [2]; 200 mg/kg PO BID) was 1.263e+10 L⁻¹, the “LYM (%)” value (Sprague–Dawley rats [2]; 200 mg/kg PO BID) was 82.9% and the MCH (Sprague–Dawley rats [2]; 200 mg/kg PO BID) was 16.4 pg. It also gave an MCHC (Sprague–Dawley rats [2]; 200 mg/kg PO BID) of 28.7 g/dL, an MCV (Sprague–Dawley rats [2]; 200 mg/kg PO BID) of 57 fL and an MON (Sprague–Dawley rats [2]; 200 mg/kg PO BID) of 7.4e+08 L⁻¹. For the same molecule, the “MON (%)” value (Sprague–Dawley rats [2]; 200 mg/kg PO BID) was 4.8%, the MPV (Sprague–Dawley rats [2]; 200 mg/kg PO BID) was 8.3 fL and the NEU (Sprague–Dawley rats [2]; 200 mg/kg PO BID) was 1.97e+09 L⁻¹. The “NEU (%)” value (Sprague–Dawley rats [2]; 200 mg/kg PO BID) was 12.3%, the PCT (Sprague–Dawley rats [2]; 200 mg/kg PO BID) was 0.14% and the PDWc (Sprague–Dawley rats [2]; 200 mg/kg PO BID) was 35.8%. The PDWs (Sprague–Dawley rats [2]; 200 mg/kg PO BID) was 13.7 fL, the PLT (Sprague–Dawley rats [2]; 200 mg/kg PO BID) was 1.79e+11 L⁻¹ and the RDWc (Sprague–Dawley rats [2]; 200 mg/kg PO BID) was 19.3%. For the same molecule, the RDWs (Sprague–Dawley rats [2]; 200 mg/kg PO BID) was 40.8 fL, the “hematology parameters, overall” value (Sprague–Dawley rats [2]; [5]) was “did not alter the hematology parameters” and the “number of platelets (PLT), differences to control” value (Sprague–Dawley rats [2]; [5]) was “these differences were not significant”. For the same molecule, the blood-brain barrier penetration [3] was “exceptionally low blood-brain barrier penetration” and the “dose needed to achieve the therapeutic effects” value [4] was 50 mg/kg BID.

From publication PMC12171880, “Selectivity and Safety Characterization of a Xanthine–Imidazothiazole Lead Structure: a Novel Tryptophan Hydroxylase Inhibitor of Peripheral Serotonin Synthesis” (ACS Pharmacology & Translational Science, 2025)
